Measurements taken from patent US11236067B2, “Compound for treating cystic fibrosis” (ORPHOMED, INC., priority 2019, dated 2022).
Converted amounts (≈) assume the structure as drawn. “Also recorded” adds a separate entry of the source.

Columns and labels:
[1] = Metabolic stability in human liver microsomes with NADPH generating system; assay type: in vitro ADME; details: for Substrate remaining (%) / Substrate loss (%) / microsomal CLint at 1 uM / half-life at 1 uM: 1 μM substrate; for microsomal CLint at 1 uM: read-out: Estimated in vitro intrinsic clearance (μL/min/mg protein); for half-life at 1 uM: read-out: Half-life estimated from single exponential decay; for Metabolic stability (in words): substrate in the presence of human liver microsomes
Method: The compound of Formula I (Compound 10) (1 uM) and ivacaftor (1 uM) were incubated with human liver microsomes (1 mg/mL protein/mL) in the presence of NADPH generating system (NADP (1 mM, ph7, glucose-6-phosphate (5 mM ph 7.4) and glucose-6-phosphate dehydrogenase (1 Unit/mL) for 0, 30, 60, and 120 minutes. Remaining substrate was measured by LC-MS/MS. Concentration of the test article was converted to percent drug remaining relative to the concentration of the test article at Time Zero.

[2] = Solubility by nephelometry (turbidity) in HEPES-buffered physiological saline with 0.3% DMSO; assay type: physicochemical; details: HB-PS with 0.3% DMSO; for solubility: HEPES-buffered physiological saline with 0.3% DMSO, aqueous buffer, kinetic from dmso stock, interpolated from solubility and turbidity plots, read-out: Solubility limit
Method: Solubility of the compound of Formula I (Compound 10) and ivacaftor was evaluated in HEPES-buffered physiological saline solution (HB-PS) with 0.3% DMSO. Solubility was measured as absence of turbidity using microparticualtes light-scattering technology in nephelometer and output expressed as nephelometry turbidity units (NTU). The HEPES buffer with 0.3% DMSO was the media used for the Ussing Chamber assays as described below. Concentrations of Compound 10 and ivacaftor tested in duplicate were 0, 0.01, 0.03, 0.1, 0.3, 1, 3, 10, 30 μM. The NIST traceable reference standard at 0, 0.2, 0.6 and 1 NTU were measured in duplicate as a reference standard for turbidity. The NTU values were plotted against the concentrations of Compound 10 and ivacaftor.

F508del CFTR = target: T1, F508del CFTR (Homo sapiens, UniProt P13569, DEL508-508); assay: CFTR potentiator activity, Ussing chamber assay in primary bronchial epithelia (CFhBE); assay type: cell-based
T1 construct: human primary bronchial epithelia obtained from donors with the homozygous F508del CFTR missense mutation (CFhBE); endogenous in cells; host or cells: human primary bronchial epithelial cells (CFhBE) from donors homozygous for F508del
T1 sequence (P13569 with tags, fused parts or gaps DEL508-508): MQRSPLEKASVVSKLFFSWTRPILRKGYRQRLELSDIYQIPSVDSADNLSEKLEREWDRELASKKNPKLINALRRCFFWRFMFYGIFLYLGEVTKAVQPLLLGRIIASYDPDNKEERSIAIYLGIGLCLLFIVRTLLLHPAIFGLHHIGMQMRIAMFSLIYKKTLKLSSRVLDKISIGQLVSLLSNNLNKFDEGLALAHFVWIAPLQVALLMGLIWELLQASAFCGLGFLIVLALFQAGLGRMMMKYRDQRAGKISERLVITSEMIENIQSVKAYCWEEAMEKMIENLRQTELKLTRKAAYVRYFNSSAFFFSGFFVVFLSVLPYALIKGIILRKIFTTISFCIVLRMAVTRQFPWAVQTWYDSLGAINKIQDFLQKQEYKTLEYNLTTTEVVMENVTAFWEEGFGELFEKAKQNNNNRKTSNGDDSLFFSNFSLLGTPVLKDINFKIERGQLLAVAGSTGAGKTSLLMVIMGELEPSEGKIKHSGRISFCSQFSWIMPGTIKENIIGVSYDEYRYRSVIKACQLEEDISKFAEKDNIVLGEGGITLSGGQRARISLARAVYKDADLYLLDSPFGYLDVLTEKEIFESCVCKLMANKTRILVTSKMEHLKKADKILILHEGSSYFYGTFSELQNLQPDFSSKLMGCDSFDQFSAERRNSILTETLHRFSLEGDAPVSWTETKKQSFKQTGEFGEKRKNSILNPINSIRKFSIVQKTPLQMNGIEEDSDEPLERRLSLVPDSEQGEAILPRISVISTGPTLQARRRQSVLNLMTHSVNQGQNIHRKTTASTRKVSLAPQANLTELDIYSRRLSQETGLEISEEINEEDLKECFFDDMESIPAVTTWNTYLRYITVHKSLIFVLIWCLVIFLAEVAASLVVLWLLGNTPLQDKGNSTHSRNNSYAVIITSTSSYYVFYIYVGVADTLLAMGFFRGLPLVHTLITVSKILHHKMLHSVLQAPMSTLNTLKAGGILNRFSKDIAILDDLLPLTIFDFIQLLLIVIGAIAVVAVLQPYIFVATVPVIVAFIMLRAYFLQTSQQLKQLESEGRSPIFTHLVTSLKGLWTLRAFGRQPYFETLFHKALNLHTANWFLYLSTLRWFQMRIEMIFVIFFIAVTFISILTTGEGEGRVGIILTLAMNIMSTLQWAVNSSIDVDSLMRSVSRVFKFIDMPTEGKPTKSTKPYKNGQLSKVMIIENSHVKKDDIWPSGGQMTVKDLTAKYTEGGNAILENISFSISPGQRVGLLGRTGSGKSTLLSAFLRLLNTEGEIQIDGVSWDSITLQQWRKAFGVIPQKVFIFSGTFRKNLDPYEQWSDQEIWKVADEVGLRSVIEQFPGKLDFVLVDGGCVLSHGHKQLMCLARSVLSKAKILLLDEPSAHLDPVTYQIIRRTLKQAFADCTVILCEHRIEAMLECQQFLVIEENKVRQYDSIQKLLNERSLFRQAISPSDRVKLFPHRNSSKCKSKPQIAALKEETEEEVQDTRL
Method: Chloride ion channel potentiator activity of the compound of Formula I (Compound 10) and ivacaftor was evaluated in monlayer cultures of human primary bronchial epithelia obtained from donors with the homozygous F508del CFTR missense mutation (CFhBE) using Ussing assay technology.
The Ussing chamber assay is a well-established method for measurement of transport across epithelia of a wide variety of transport substrates (Clark, American Journal of Physiology.Gastrointestinal and liver Physiology, 2009, 296, G1151-1166). The Ussing half-chambers permit both apical and basolateral surfaces of an epithelium to be exposed to identical solutions, eliminating the chemical concentration gradient for movement of molecules across the epithelium. Under these symmetric solution conditions, the epithelium generates a transepithelial potential by activity of ion selective channels and active transport processes asymmetrically distributed in apical and basolateral membranes. The epithelium is maintained at a potential difference of 0 mV. The negative feedback circuit used for controlling the potential difference at 0 mV is called a voltage clamp circuit. Any current generated by the voltage clamp to maintain the transepithelial potential at 0 mV can arise only from biological active transport processes in the epithelial cells and the current (called short circuit current (ISC)) is a direct measure of these processes. Efflux of chloride to the apical surface is enabled by opening of apical CFTR channels, which allows water to move to the cellular surface and keep the tissue hydrated.

[3] = human liver microsomes, 120 min

Substrate remaining (%) ([1]; human liver microsomes, 0 min)	Substrate loss (%) ([1]; human liver microsomes, 30 min)	Substrate remaining (%) ([1]; human liver microsomes, 30 min)	Substrate loss (%) ([1]; human liver microsomes, 60 min)	Substrate remaining (%) ([1]; human liver microsomes, 60 min)	Substrate loss (%) [1, 3]	Substrate remaining (%) [1, 3] [%]	microsomal CLint at 1 uM ([1]; human liver microsomes) [µL/min/mg]	half-life at 1 uM ([1]; human liver microsomes) [h]	Metabolic stability (in words) [1]	Metabolic stability (in words) ([1]; listed as compound represented by Formula I)	Solubility relative to ivacaftor (times less soluble) [2] [times]	solubility [2] [µM]	Potency relative to ivacaftor (times more potent) (F508del CFTR; based on solubility difference between the compound and ivacaftor)	Fraction metabolized ([1]; incubated with human liver microsomes (text summary of Table 1)) [%]	SMILES	Metabolism back to ivacaftor or ivacaftor metabolites (in words) ([1]; human liver microsomes)	Potentiator response (in words) (F508del CFTR; homozygous F508del CFhBE monolayers, short circuit current, FIGS. 2A and 2B)	Duration/stability of potentiator response (in words) (F508del CFTR; homozygous F508del CFhBE, FIGS. 2A and 2B)
100	No loss	108	No loss	107	No loss	120	< 5.78	> 2	metabolically stable	chemically and metabolically stable	57.4	0.137	at least 15 times	–	CC(C)(C)c1cc(C(C)(C)C)c(OCCOc2cc(NC(=O)c3c[nH]c4ccccc4c3=O)c(C(C)(C)C)cc2C(C)(C)C)cc1NC(=O)c1c[nH]c2ccccc2c1=O [Compound of Formula I, N,N′-((ethane-1,2-diylbis(oxy))bis(2,4-di-tert-butyl-5,1-phenylene))bis(4-oxo-1,4-dihydroquinoline-3-carboxamide)]	not to substantially metabolize to ivacaftor, hydroxymethyl-ivacaftor or ivacaftor-carboxylate; also recorded: does not revert back to ivacaftor	potentiator response is similar to ivacaftor; also recorded: potentiated F508del CFTR	appears to remain stable longer than ivacftor
100	30.4%	69.6	49.1%	50.9	69.5%	30.5	10.6	1.09	–	–	–	7.86 (≈ 3.09 µg/mL)	–	~70	CC(C)(C)c1cc(C(C)(C)C)c(NC(=O)c2c[nH]c3ccccc3c2=O)cc1O [ivacaftor, reference compound]	–	–	–
